From patent publication US20220363665A1, “QUINOLINE COMPOUNDS FOR THE TREATMENT OF AUTOIMMUNE DISEASE” (Hoffmann-La Roche Inc., priority 2019, published 2022)

Key:
Format in all cases: in vitro ADME
[1] = Human microsome stability assay; conditions: 1 μM test compound, 0.5 mg/mL protein
Protocol: The human microsomal stability assay is used for early assessment of metabolic stability of a test compound in human liver microsomes.
Human liver microsomes (Cat. NO.: 452117, Corning, USA; Cat. NO.: H2610, Xenotech, USA) were preincubated with test compound for 10 minutes at 37° C. in 100 mM potassium phosphate buffer, pH 7.4. The reactions were initiated by adding NADPH regenerating system. The final incubation mixtures contained 1 μM test compound, 0.5 mg/mL liver microsomal protein, 1 mM MgCl2, 1 mM NADP, 1 unit/mL isocitric dehydrogenase and 6 mM isocitric acid in 100 mM potassium phosphate buffer, pH 7.4. After incubation times of 0, 3, 6, 9, 15 and 30 minutes at 37° C., 300 μL of cold ACN (including internal standard) was added to 100 μL incubation mixture to terminate the reaction. Following precipitation and centrifugation, the amount of compound remaining in the samples were determined by LC-MS/MS. Controls of no NADPH regenerating system at zero and 30 minutes were also prepared and analyzed. The results were categorized as: low (<7.0 mL/min/kg), medium (7.0˜16.2 mL/min/kg) and high (16.2-23.2 mL/min/kg).

CYP3A4 = target: T1, CYP3A4 (Homo sapiens, UniProt P08684); test: CYP inhibition assay in human liver microsome, CYP3A4; conditions: HLM, midazolam substrate; for inhibition at 5 min, 10 µM: human, liver microsomes, probe midazolam, read-out: CYP inhibition % @10 uM (3A4)
T1 construct: tissue BD-Gentest 452117; host or cells: human liver microsomes
Protocol: (§1) This is a high throughput screening assay used for assessment of reversible inhibition of CYP2C9, CYP2D6, and CYP3A4 activity of test compounds in human liver microsome (HLM) in early discovery stage.
(§2) 10 mM DMSO stock solutions of test compounds were diluted in DMSO to generate 2 mM intermediate stock solution. 250 nL of intermediate stock solution were transferred in duplicate into 3 separate 384 well microtitre plates (assay-ready plates). A mixture of HLM and each substrate was made up. 45 μL of HLM substrate mix was then transferred to each well of an assay ready plate and mixed. The negative (solvent) and positive controls (standard inhibitor for each CYP) were included in each assay ready plate. The assay ready plate was warmed to 37° C. in an incubator over 10 minutes. 5 μL pre-warmed NADPH regenerating system was added to each incubation well to start the reaction. Final incubation volume was 50 μL. The assay plate then was placed back in the 37° C. incubator. After 5 minutes incubation (10 minutes for CYP2D6), incubates were quenched by addition of 50 μL quench reagent containing internal standards (400 ng/mL 13C6-4′-OH-Diclofenac, 20 ng/mL D3-Dextrorphan and 20 ng/mL D4-1′OH-Midazolam in acetonitrile). The supernatants were collected for RapidFire/MS/MS analysis.
(§3) RapidFire online solid phase extraction/sample injection system (Agilent) coupled with API4000 triple quadrupole mass spectrometer (AB Sciex) were used for sample analysis. The mobile phase composed of acetonitrile and water supplemented with 0.1% formic acid. A C4 solid phase extraction cartridge is used for sample separation. MS detection is achieved in positive ion MRM mode.
(§4) Peak areas for substrate, metabolite and internal standard are determined using the
(§5) RapidFire integrator software (version 3.6.12009.12296). Peak area ratios (PAR) of metabolite and internal standard (stable-labelled metabolite) are then calculated. The measurement window for each experiment is then defined:
(§6) PAR (0% activity)=average PAR for all incubations containing concentrated inhibitor;
(§7) Par (100% activity)=average PAR for all incubations containing no inhibitor (DMSO controls);
(§8) % Activity (test inhibitor) =[PAR(test inhibitor)-PAR(0% activity)][PAR(100% activity)-PAR(0% activity)];
(§9) % Inhibition (test inhibitor)=100-% Activity (test inhibitor).
(§10) Percentage inhibition data are then reported, in duplicate, for the 3 CYP enzymes.

CYP2D6 = target: T2, CYP2D6 (Homo sapiens, UniProt P10635); test: CYP inhibition assay in human liver microsome, CYP2D6; conditions: HLM, dextromethorphan substrate; for inhibition at 10 min, 10 µM: human, liver microsomes, probe dextromethorphan, read-out: CYP inhibition % @10 uM (2D6)
T2 construct: tissue BD-Gentest 452117; host or cells: human liver microsomes
Protocol: as §1, §2, §3, §4, §5, §6, §7, §8, §9, §10

T1 sequence (P08684 whole entry): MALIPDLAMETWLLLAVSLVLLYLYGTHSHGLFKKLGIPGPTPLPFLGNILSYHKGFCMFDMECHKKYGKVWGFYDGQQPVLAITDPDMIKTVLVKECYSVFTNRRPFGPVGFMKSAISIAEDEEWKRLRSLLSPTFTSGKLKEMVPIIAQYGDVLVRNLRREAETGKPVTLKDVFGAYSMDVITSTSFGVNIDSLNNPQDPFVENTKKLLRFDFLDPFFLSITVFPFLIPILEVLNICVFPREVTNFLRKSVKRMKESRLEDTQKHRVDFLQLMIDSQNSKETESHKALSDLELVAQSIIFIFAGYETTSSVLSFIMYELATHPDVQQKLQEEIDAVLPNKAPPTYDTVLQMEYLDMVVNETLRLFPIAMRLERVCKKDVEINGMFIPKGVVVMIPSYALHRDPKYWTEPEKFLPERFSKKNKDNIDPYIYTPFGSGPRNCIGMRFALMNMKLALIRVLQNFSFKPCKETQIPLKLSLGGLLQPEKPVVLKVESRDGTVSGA
T2 sequence (P10635 whole entry): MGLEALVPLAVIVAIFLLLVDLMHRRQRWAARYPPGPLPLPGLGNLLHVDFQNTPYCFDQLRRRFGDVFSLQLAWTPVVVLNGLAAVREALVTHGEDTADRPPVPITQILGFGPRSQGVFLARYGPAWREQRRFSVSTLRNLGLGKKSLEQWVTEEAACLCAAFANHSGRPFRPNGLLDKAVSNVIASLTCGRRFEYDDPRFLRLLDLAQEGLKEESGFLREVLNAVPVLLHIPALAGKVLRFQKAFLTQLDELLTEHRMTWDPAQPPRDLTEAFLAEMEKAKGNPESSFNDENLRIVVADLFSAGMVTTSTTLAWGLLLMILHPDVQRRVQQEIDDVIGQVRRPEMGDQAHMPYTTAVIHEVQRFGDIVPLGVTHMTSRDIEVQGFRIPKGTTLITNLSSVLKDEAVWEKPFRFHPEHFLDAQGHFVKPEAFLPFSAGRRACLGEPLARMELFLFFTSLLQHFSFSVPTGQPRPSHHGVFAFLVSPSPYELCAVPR

inhibition at 5 min, 10 µM (CYP3A4) [%]	inhibition at 10 min, 10 µM (CYP2D6) [%]	Structure (SMILES)	further results
–	–	C[C@@H]1CN(c2ccc(C(F)(F)F)c3ncccc23)C[C@H](C(=O)NC2CNC[C@@H]2F)O1 (stereo partly drawn) [Example 2, cis-(2R,6R)-N-(4-fluoropyrrolidin-3-yl)-6-methyl-4-[8-(trifluoromethyl)-5-quinolyl]morpholine-2-carboxamide]	clearance in human liver microsomes [1]: 6.15 mL/min/kg
5	5	C[C@@H]1CN(c2ccc(I)c3ncccc23)C[C@H](C(=O)NCC2CN(C)CCO2)O1 (stereo partly drawn) [Example 39, (2R,6R)-4-(8-iodo-5-quinolyl)-6-methyl-N-[(4-methylmorpholin-2-yl)methyl]morpholine-2-carboxamide]	–
-2	-22	C[C@@H]1CN(c2ccc(C(F)(F)F)c3ncccc23)C[C@H](C(=O)N2CCC3(CCNCC3)CC2)O1 [Example 32, 3,9-diazaspiro[5.5]undecan-3-yl-[(2R,6R)-6-methyl-4-[8-(trifluoromethyl)-5-quinolyl]morpholin-2-yl]methanone]	–
–	–	CC(NC(=O)[C@H]1CN(c2ccc(C(F)(F)F)c3ncccc23)C[C@@H](C)O1)C1CN(C)CCO1 (single isomer, unassigned) [Example 35A]	CYP inhibition % @10 uM (2D6) (CYP2D6): 8%
–	–	C[C@H]1C[C@@H](N)CN(c2ccc(C(F)(F)F)c3ncccc23)C1 [Example 1, (3R,5S)-5-methyl-1-[8-(trifluoromethyl)-5-quinolyl]piperidin-3-amine]	clearance in human liver microsomes [1]: 6.15 mL/min/kg
–	-3	C[C@@H]1CN(c2ccc(Br)c3ncccc23)C[C@H](C(=O)NC2CCN(C)CC2)O1 [Example 42, (2R,6R)-4-(8-bromo-5-quinolyl)-6-methyl-N-(1-methyl-4-piperidyl)morpholine-2-carboxamide]	–
-28	5	C[C@@H]1CN(c2ccc(C(F)(F)F)c3ncccc23)C[C@H](C(=O)NCC2COCCN2C)O1 (stereo partly drawn) [Example 11, (2R,6R)-6-methyl-N-[(4-methylmorpholin-3-yl)methyl]-4-[8-(trifluoromethyl)-5-quinolyl]morpholine-2-carboxamide]	–
-22	0	C[C@@H]1CN(c2ccc(C(F)(F)F)c3ncccc23)C[C@H](C(=O)NCCN2CCOCC2)O1 [Example 13, (2R,6R)-6-methyl-N-(2-morpholinoethyl)-4-[8-(trifluoromethyl)-5-quinolyl]morpholine-2-carboxamide]	–
–	–	C[C@@H]1CN(c2ccc(C(F)(F)F)c3ncccc23)C[C@H](C(=O)N[C@H]2CNC[C@H]2F)O1 (single isomer, unassigned) [Example 2B]	clearance in human liver microsomes [1]: 6.15 mL/min/kg
–	-6	C[C@@H]1CN(c2ccc(Cl)c3ncccc23)C[C@H](C(=O)NC2CCN(C)CC2)O1 [Example 24, (2R,6R)-4-(8-chloro-5-quinolyI)-6-methyl-N-(1-methyl-4-piperidyl)morpholine-2-carboxamide]	clearance in human liver microsomes [1]: 6.15 mL/min/kg
-24	-1	C[C@@H]1CN(c2ccc(C(F)(F)F)c3ncccc23)C[C@H](C(=O)NC2CNCCOC2)O1 (stereo partly drawn) [Example 14, (2R,6R)-6-methyl-N-(1,4-oxazepan-6-yl)-4-[8-(trifluoromethyl)-5-quinolyl]morpholine-2-carboxamide]	–
–	-10	C[C@@H]1CN(c2ccc(C(F)(F)F)c3ncccc23)C[C@H](C(=O)N2CCC3(CCNC3)C2)O1 (stereo partly shown) [Example 36]	–
–	–	CC(NC(=O)[C@H]1CN(c2ccc(C(F)(F)F)c3ncccc23)C[C@@H](C)O1)C1CN(C)CCO1 (single isomer, unassigned) [Example 35B]	CYP inhibition % @10 uM (2D6) (CYP2D6): 2%
-18	-10	Cc1ccc(N2C[C@@H](C)C[C@@H](N)C2)c2cccnc12 [Example 15, (3R,5S)-5-methyl-1-(8-methyl-5-quinolyl)piperidin-3-amine]	–
–	–	C[C@@H]1CN(c2ccc(C(F)(F)F)c3ncccc23)C[C@H](C(=O)NC2CC3CNCC32)O1 (single isomer, unassigned) [Example 49A]	CYP inhibition % @10 uM (3A4) (CYP3A4; 10 µM): −25%; CYP inhibition % @10 uM (2D6) (CYP2D6): 2%
–	–	C[C@@H]1CN(c2ccc(Cl)c3ncccc23)C[C@H](C(=O)N[C@H]2CNC[C@H]2F)O1 [Example 22, (2R,6R)-4-(8-chloro-5-quinolyl)-N-[(3S,4R)-4-fluoropyrrolidin-3-yl]-6-methyl-morpholine-2-carboxamide]	clearance in human liver microsomes [1]: 6.15 mL/min/kg
–	3	C[C@@H]1CN(c2ccc(C(F)(F)F)c3ncccc23)C[C@H](C(=O)NC2CC3CNCC(C3)C2)O1 (stereo partly drawn) [Example 37, (2R,6R)-N-(3-azabicyclo[3.3.1]nonan-7-yl)-6-methyl-4-[8-(trifluoromethyl)-5-quinolyl]morpholine-2-carboxamide]	–
-14	10	C[C@@H]1CN(c2ccc(C(F)(F)F)c3ncccc23)C[C@H](C(=O)NCC2CCCCN2C)O1 (stereo partly drawn) [Example 4, (2R,6R)-6-methyl-N-[(1-methyl-2-piperidyl)methyl]-4-[8-(trifluoromethyl)-5-quinolyl]morpholine-2-carboxamide]	–
–	–	C[C@@H]1CN(c2ccc(C(F)(F)F)c3ncccc23)C[C@H](C(=O)N2CC(N)C2)O1 [Example 7, (3-aminoazetidin-1-yl)-[(2R,6R)-6-methyl-4-[8-(trifluoromethyl)-5-quinolyl]morpholin-2-yl]methanone]	clearance in human liver microsomes [1]: 6.15 mL/min/kg
-11	16	C[C@@H]1CN(c2ccc(C(F)(F)F)c3ncccc23)C[C@H](C(=O)NCC2CN(C)CCO2)O1 (stereo partly drawn) [Example 3, (2R,6R)-6-methyl-N-[(4-methylmorpholin-2-yl)methyl]-4-[8-(trifluoromethyl)-5-quinolyl]morpholine-2-carboxamide]	–
20	20	C[C@@H]1CN(c2ccc(C(F)(F)F)c3ncccc23)C[C@H](C(=O)NC[C@@H]2CC(F)(F)CN2)O1 [Example 30]	–
-30	2	C[C@@H]1CN(c2ccc(C(F)(F)F)c3ncccc23)C[C@H](C(=O)NC2CNCC(F)(F)C2)O1 (stereo partly drawn) [Example 28, (2R,6R)-N-(5,5-difluoro-3-piperidyl)-6-methyl-4-[8-(trifluoromethyl)-5-quinolyl]morpholine-2-carboxamide]	–

Structure (SMILES)	inhibition at 5 min, 10 µM (CYP3A4) [%]	inhibition at 10 min, 10 µM (CYP2D6) [%]	further results
C[C@@H]1CN(c2ccc([N+](=O)[O-])c3ncccc23)C[C@H](C(=O)NCC2CN(C)CCO2)O1 (stereo partly drawn) [Example 18, (2R,6R)-6-methyl-N-[(4-methylmorpholin-2-yl)methyl]-4-(8-nitro-5-quinolyl)morpholine-2-carboxamide]	11	0	–
C[C@@H]1CN(c2ccc([N+](=O)[O-])c3ncccc23)C[C@H](C(=O)NC2CCN(C)CC2)O1 [Example 20, (2R,6R)-6-methyl-N-(1-methyl-4-piperidyl)-4-(8-nitro-5-quinolyl)morpholine-2-carboxamide]	6	-12	–
C[C@@H]1CN(c2ccc(C(F)(F)F)c3ncccc23)C[C@H](C(=O)NC2CN(C)CC23CC3)O1 (stereo partly drawn) [Example 9, (2R,6R)-6-methyl-N-(5-methyl-5-azaspiro[2.4]heptan-7-yl)-4-[8-(trifluoromethyl)-5-quinolyl]morpholine-2-carboxamide]	-18	6	–
